The text below walks through data of patent US8178690B2, “Compounds and methods for inhibiting the interaction of BCL proteins with binding partners” (Infinity Pharmaceuticals, Inc., priority 2006, dated 2012).

One experiment deals with Bcl-xL (Homo sapiens, UniProt Q07817). Nature of the experiment: Bcl-xL binding affinity analysis (fluorescence polarization binding assay). The conditions noted are these: read-out: BcI-XI (Ki, Bcl-xL binding affinity). In general terms: In fluorescence polarisation assays a small probe gives low polarisation when free and higher when bound to something large.
In the next experiment the target is Bcl-2 (Homo sapiens, UniProt P10415). In words: Bcl-2 binding affinity analysis (fluorescence polarization binding assay). The conditions noted are these: read-out: BcI2 (Ki, Bcl-2 binding affinity).

pKi: −log10 of the molar value. A value given as a limit tells only on which side of the number the result lay.

Bcl-xL, sequence (Q07817 whole entry): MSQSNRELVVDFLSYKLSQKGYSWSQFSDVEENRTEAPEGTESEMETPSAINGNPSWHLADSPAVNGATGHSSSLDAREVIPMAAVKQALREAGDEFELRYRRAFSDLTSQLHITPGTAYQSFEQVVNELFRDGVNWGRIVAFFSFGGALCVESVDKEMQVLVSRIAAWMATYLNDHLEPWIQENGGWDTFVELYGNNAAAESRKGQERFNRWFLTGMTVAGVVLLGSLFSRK
Bcl-2, sequence (P10415 whole entry): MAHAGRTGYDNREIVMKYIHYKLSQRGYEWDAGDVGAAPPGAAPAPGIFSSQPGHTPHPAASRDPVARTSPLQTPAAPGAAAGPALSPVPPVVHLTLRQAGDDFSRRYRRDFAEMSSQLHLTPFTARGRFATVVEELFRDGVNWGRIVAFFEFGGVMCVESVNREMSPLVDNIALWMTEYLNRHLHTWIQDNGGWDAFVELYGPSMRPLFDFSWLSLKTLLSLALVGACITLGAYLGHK

In the case of `COc1c(-c2cc(C(=O)N[C@@H](Cc3ccccc3)CN(C)C)cc(N(C)C)c2)ccc(Cl)c1CN1O[C@@H](CO)[C@@H]([C@H](C)O)[C@H]1C(=O)N[C@H]1C[C@H]2C[C@@H]([C@@H]1C)C2(C)C` [Compound 274], the results for the pKi on Bcl-xL and at Bcl-2 were 5.30 to 6.00 and > 9.00, respectively.

`COc1c(CN2O[C@@H](CO)[C@@H]([C@H](C)O)[C@H]2C(=O)N[C@H]2C[C@H]3C[C@@H]([C@@H]2C)C3(C)C)cccc1-c1cc(C(=O)N[C@@H](Cc2ccccc2)CN(C)C)cc(N(C)CCO)c1` [Compound 285]: the figures for the pKi on Bcl-xL and on Bcl-2 were > 6.00 and > 9.00, respectively.

As to `COc1c(CN2O[C@@H](CO)[C@@H]([C@H](C)O)[C@H]2C(=O)N[C@H]2C[C@H]3C[C@@H]([C@@H]2C)C3(C)C)cccc1-c1cc(C(=O)N[C@H](CN(C)C)[C@@H](NS(C)(=O)=O)c2ccccc2)cc(N(C)CCO)c1` [Compound 290], the negative logarithm of the Ki (pKi) (usually the negative decadic logarithm of the Ki, by convention in mol/L) at Bcl-xL was > 6.00; at Bcl-2, > 9.00.

As to `COc1c(CN2O[C@@H](CO)[C@@H]([C@H](C)O)[C@H]2C(=O)N[C@H]2C[C@H]3CC([C@@H]2C)C3(C)C)cccc1-c1cc(C(=O)N[C@@H](Cc2ccccc2)CN(C)C)cc(N2CCC[C@@H]2CO)c1` [Compound 296], the pKi at Bcl-xL is > 6.00; on Bcl-2, > 9.00.

Consider `COc1c(CN2O[C@@H](CO)[C@@H]([C@H](C)O)[C@H]2C(=O)N[C@H]2C[C@H]3C[C@@H]([C@@H]2C)C3(C)C)cccc1-c1cc(C(C)=O)cc(C(=O)N[C@@H](Cc2ccccc2)CN(C)C)c1` [Compound 299], for which the pKi on Bcl-xL is > 6.00; on Bcl-2 it was > 9.00.

With `COc1c(CN2O[C@@H](CN)[C@@H]([C@H](C)O)[C@H]2C(=O)N[C@H]2C[C@H]3C[C@@H]([C@@H]2C)C3(C)C)cccc1-c1cc(C(=O)N[C@@H](Cc2ccccc2)CN(C)C)cc(N(C)CCO)c1` [Compound 302], the pKi is 5.30 to 6.00 on Bcl-xL and > 9.00 at Bcl-2.

Turning to `COc1c(CN2O[C@@H](CO)[C@@H]([C@H](C)O)[C@H]2C(=O)N[C@H]2C[C@H]3C[C@@H]([C@@H]2C)C3(C)C)cccc1-c1cc(C(=O)N[C@@H](Cc2ccccc2)CN(C)C)cc(N(C)CC(=O)O)c1` [Compound 306], the pKi was > 6.00 at Bcl-xL and > 9.00 at Bcl-2.

For the compound `COc1c(CN2O[C@@H](CO)[C@@H]([C@H](C)O)[C@H]2C(=O)N[C@H]2C[C@H]3C[C@@H]([C@@H]2C)C3(C)C)cccc1-c1cc(C(=O)N[C@@H](Cc2ccccc2)CN(C)C)cc(N(C)CC(=O)N(C)C)c1` [Compound 308], the pKi on Bcl-xL is > 6.00; at Bcl-2, > 9.00.

For `CNC(=O)CN(C)c1cc(C(=O)N[C@@H](Cc2ccccc2)CN(C)C)cc(-c2cccc(CN3O[C@@H](CO)[C@@H]([C@H](C)O)[C@H]3C(=O)N[C@H]3C[C@H]4C[C@@H]([C@@H]3C)C4(C)C)c2OC)c1` [Compound 309], the pKi on Bcl-xL is > 6.00; at Bcl-2, > 9.00.

In the case of `COc1c(CN2O[C@@H](CO)[C@@H]([C@H](C)O)[C@H]2C(=O)N[C@H]2C[C@H]3C[C@@H]([C@@H]2C)C3(C)C)cccc1-c1cc(C(=O)N[C@@H](Cc2ccccc2)CN(C)C)cc(N(C)CC(N)=O)c1` [Compound 310], the pKi is > 6.00 at Bcl-xL and > 9.00 at Bcl-2.

In the case of `COc1c(CN2O[C@@H](CO)[C@@H]([C@H](C)O)[C@H]2C(=O)N[C@H]2C[C@H]3C[C@@H]([C@@H]2C)C3(C)C)cccc1-c1cc(C(=O)N(C)[C@@H](Cc2ccccc2)CN(C)C)cc(N(C)C)c1` [Compound 311], the pKi on Bcl-xL was > 6.00; at Bcl-2 it was > 9.00.

As to `CCN1CCC[C@@H]1CNC(=O)c1cc(-c2cccc(CN3O[C@@H](CO)[C@@H]([C@H](C)O)[C@H]3C(=O)N[C@H]3C[C@H]4C[C@@H]([C@@H]3C)C4(C)C)c2OC)cc(N(C)C)c1` [Compound 312], the pKi was > 6.00 at Bcl-xL and > 9.00 on Bcl-2.

Regarding `COc1c(CN2O[C@@H](CO)[C@@H]([C@H](C)O)[C@H]2C(=O)N[C@H]2C[C@H]3C[C@@H]([C@@H]2C)C3(C)C)cccc1-c1cc(C(=O)N[C@H](Cc2ccccc2)CN2CCN(C)CC2)cc(N(C)C)c1` [Compound 313], the pKi at Bcl-xL is > 6.00; at Bcl-2, > 9.00.
